Results taken from patent publication EP4603105A1, “PHARMACEUTICAL COMPOSITION CONTAINING CYCLIC COMPOUND HAVING SELECTIVE KRAS INHIBITORY EFFECT AGAINST HRAS AND NRAS” (CHUGAI SEIYAKU KABUSHIKI KAISHA, priority 2022, dated 2024).
Where two headings read alike, the source gives them in different places.

Assays:
[1] = target: GDP-bound NRAS wild-type protein (Homo sapiens, UniProt P01111); assay: Binding to NRAS by surface plasmon resonance (SPR), KD and KD ratio to KRAS
Procedure, shortened: (§1)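 SPR, 30°C: Avi-biotin RAS·GDP captured via Biotin CAPture (~100–300 RU); running buffer HBS pH 7.4, 1 mM DTT, 10 mM MgCl2, 0.01% Tween 20, 10 µM GDP, 4% DMSO. Single-cycle kinetics, 100 µL/min, 75 s injections; 1:1 model → KD.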

HRAS wild-type protein = HRAS wild-type protein (Homo sapiens, UniProt P01112); assay: Binding to HRAS by surface plasmon resonance (SPR), KD and KD ratio to KRAS
Procedure, shortened: as §1

[2] = tested on: human lung cancer strain NCI-H441; assay: NCI-H441 cell proliferation inhibitory activity (CellTiter-Glo, 4 days); type: cell-based; settings: read-out: NCl-H441 IC50
Experimental: A test compound was dispensed into a U-bottom 384-well plate as 40 nL serially diluted dimethyl sulfoxide solutions using a liquid handler Echo (LABCYTE). […] This cell suspension was dispensed in an amount of 40 µL per well into a plate containing the test compound, and cultured at 37°C in a 5% carbon dioxide gas incubator. Four days later, 20 µL of CellTiter-Glo (registered trademark) (Promega) was added to each well and […] was measured. […]

[3] = target: GDP-bound KRAS wild-type protein (Homo sapiens, UniProt P01116); assay: Binding to KRAS by surface plasmon resonance (SPR), dissociation constant KD
Procedure, shortened: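 Affinity is measured by surface plasmon resonance at 30°C against captured, GDP-loaded RAS carrying a biotinylated Avi tag. Compounds are titrated by single-cycle kinetics, and KD comes from a 1:1 fit.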

[4] = ratio of KD with respect to GDP-bound NRAS wild-type protein to KD with respect to KRAS
[5] = ratio of KD with respect to HRAS wild-type protein to KD with respect to KRAS
[6] = 50% proliferation inhibitory concentration, four days
[7] = Single Cycle Kinetics, 1:1 binding model
[8] = ratio of KD for GDP-bound NRAS wild-type protein to KD for KRAS
[9] = ratio of KD for HRAS wild-type protein to KD for KRAS

Sequence of HRAS wild-type protein (P01112 whole entry): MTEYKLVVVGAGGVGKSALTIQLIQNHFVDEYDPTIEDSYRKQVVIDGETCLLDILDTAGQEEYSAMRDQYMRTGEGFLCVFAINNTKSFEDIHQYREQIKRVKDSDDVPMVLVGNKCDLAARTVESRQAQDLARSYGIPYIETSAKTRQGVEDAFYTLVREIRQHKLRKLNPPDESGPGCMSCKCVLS
Sequence of GDP-bound NRAS wild-type protein (P01111 whole entry): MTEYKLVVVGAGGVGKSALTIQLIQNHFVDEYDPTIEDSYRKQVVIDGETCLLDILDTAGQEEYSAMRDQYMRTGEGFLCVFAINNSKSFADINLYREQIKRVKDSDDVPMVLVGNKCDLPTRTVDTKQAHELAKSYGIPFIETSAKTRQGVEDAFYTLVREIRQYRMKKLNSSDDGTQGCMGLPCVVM
Sequence of GDP-bound KRAS wild-type protein (P01116 1-188 isoform P01116-2): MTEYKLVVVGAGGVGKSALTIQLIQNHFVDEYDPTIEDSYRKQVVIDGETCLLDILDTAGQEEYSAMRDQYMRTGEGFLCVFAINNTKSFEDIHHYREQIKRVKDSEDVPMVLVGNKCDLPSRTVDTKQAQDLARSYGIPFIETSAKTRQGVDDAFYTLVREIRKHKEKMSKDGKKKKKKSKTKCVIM

| SMILES | NRAS /KRAS [1, 4] | HRAS /KRAS (HRAS wild-type protein; [5]) | IC50 [2, 6] [nM] | Kd [3, 7] [nM] | NRAS /KRAS [1, 8] | HRAS /KRAS (HRAS wild-type protein; [9]) | IC50 ([2]; NCI-H441 cells, 4 days) [nM] | Kd ([3]; 1:1 binding model) [nM] | Kd ([3]; Single Cycle Kinetics) [nM] |
| --- | --- | --- | --- | --- | --- | --- | --- | --- | --- |
| CCCCCC[C@H]1C(=O)N[C@@H]([C@@H](C)CC)C(=O)N(C)CC(=O)N(C)[C@H]2C/C=C\CCN(C2=O)[C@@H](Cc2ccc(C(F)(F)F)cc2)C(=O)N(C)CC(=O)N[C@@H](CCc2ccc3sccc3c2)C(=O)N2C[C@H](OCC)C[C@H]2C(=O)NC2(CCC2)C(=O)N(C)[C@@H](C2CCCC2)C(=O)N(C)[C@H](C(=O)N(C)C)CC(=O)N1C [PP1259] | A (a compound having 10 or more and less than 20 is denoted as A) | A (a compound having 10 or more and less than 20 is denoted as A) | 62 | 0.49 |  |  |  |  |  |
| CCC[C@H]1C(=O)N[C@@H]([C@@H](C)CC)C(=O)N(C2CC2)CC(=O)N(C)[C@H]2C/C=C\CCN(C2=O)[C@@H](Cc2ccc(C)cc2)C(=O)N(C)CC(=O)N[C@@H](CCc2ccc(C(F)(F)F)c(OC)c2)C(=O)N2C[C@H](OCC)C[C@H]2C(=O)NC2(CC(C)(C)C2)C(=O)N(C)[C@@H](CC(C)(C)C)C(=O)N(C)[C@H](C(=O)N(C)C)CC(=O)N1C [PP2722] |  |  |  |  | B (a compound having 3 or more and less than 10 is denoted as B) | B (a compound having 3 or more and less than 10 is denoted as B) | 13.9 | 0.4 |  |
| CCC[C@H]1C(=O)N[C@@H]([C@@H](C)CC)C(=O)N(C)CC(=O)N(C)[C@H]2C/C=C\CCN(C2=O)[C@@H](Cc2ccc(C(F)(F)F)cc2)C(=O)N(C)CC(=O)N[C@@H](CCc2ccc(C(F)(F)F)c(Cl)c2)C(=O)N2CC3(CC3)C[C@H]2C(=O)NC2(CCC2)C(=O)N(C)[C@@H](C2CCCC2)C(=O)N(C)[C@H](C(=O)N(C)C)CC(=O)N1C [PP3440] |  |  |  |  | AA (a compound having 20 or more is denoted as AA) | A (a compound having 10 or more and less than 20 is denoted as A) | 12.1 |  | 0.047 |
| CC[C@H](C)[C@@H]1NC(=O)[C@H](CC2CCC2)N(C)C(=O)C[C@@H](C(=O)N(C)C)N(C)C(=O)[C@H](C2CCCC2)N(C)C(=O)C2(CCCC2)NC(=O)[C@@H]2CCCN2C(=O)[C@H](CCc2cc(F)c(C(F)(F)F)c(F)c2)NC(=O)CN(C)C(=O)[C@H](Cc2ccc(C(F)(F)F)cc2)N2C[C@H](C)CC[C@@H](C2=O)N(C)C(=O)CN(C)C1=O [PP1386] | B (a compound having 3 or more and less than 10 is denoted as B) | B (a compound having 3 or more and less than 10 is denoted as B) | 4.2 | 0.082 |  |  |  |  |  |
| CCOC[C@H]1C(=O)N[C@@H]([C@@H](C)CC)C(=O)N(C)CC(=O)N(C)[C@H]2C/C=C\CCN(C2=O)[C@@H](CC2CCC(F)(F)CC2)C(=O)N(C)CC(=O)N[C@@H](CCc2ccc(C(F)(F)F)c(OC)c2)C(=O)N2C[C@@H](C)C[C@H]2C(=O)NC2(CC(C)(C)C2)C(=O)N(C)[C@@H](C(CC)CC)C(=O)N(C)[C@H](C(=O)N(C)C)CC(=O)N1C [PP2458] |  |  |  |  | A (a compound having 10 or more and less than 20 is denoted as A) | A (a compound having 10 or more and less than 20 is denoted as A) | 80.7 | 1.3 |  |
| CCO[C@@H]1C[C@H]2C(=O)OC3(CCC3)C(=O)N(C)[C@@H](C3CCCC3)C(=O)N(C)[C@H](C(=O)N(C)C)CC(=O)N(C)[C@@H](CC(C)C)C(=O)N[C@@H]([C@@H](C)CC)C(=O)N(C)CC(=O)N(C)[C@H]3C/C=C\CCN(C3=O)[C@@H](Cc3ccc(C)cc3)C(=O)N(C)CC(=O)N[C@@H](CCc3ccc(C(F)(F)F)c(OC)c3)C(=O)N2C1 [PP3382] |  |  |  |  | A (a compound having 10 or more and less than 20 is denoted as A) | B (a compound having 3 or more and less than 10 is denoted as B) | 5.2 |  | 0.2 |
| CCC[C@@H]1NC(=O)C[C@@H](C(=O)N(C)C)N(C)C(=O)[C@H](C2CCCC2)N(C)C(=O)C2(CC(C)(C)C2)NC(=O)[C@@H]2C[C@@H](OCC)CN2C(=O)[C@H](CCc2ccc(C(F)(F)F)c(Cl)c2)NC(=O)CN(C)C(=O)[C@H](Cc2ccc(C(F)(F)F)cc2)N2CC/C=C\C[C@@H](C2=O)N(C)C(=O)CN(C)C(=O)[C@H]([C@@H](C)CC)NC1=O [PP3454] |  |  |  |  | A (a compound having 10 or more and less than 20 is denoted as A) | A (a compound having 10 or more and less than 20 is denoted as A) | 26.2 |  | 0.3 |
| CCC[C@H]1C(=O)N[C@@H](C2CCCC2)C(=O)N(C)CC(=O)N(C)[C@H]2C/C=C\CCN(C2=O)[C@@H](Cc2ccc(C)cc2)C(=O)N(C)CC(=O)N[C@@H](CCc2ccc(C(F)(F)F)c(OC)c2)C(=O)N2CC3(CC3)C[C@H]2C(=O)N(C)C2(CCC2)C(=O)N(C)[C@@H]([C@@H](C)CC)C(=O)N(C)[C@H](C(=O)N(C)C)CC(=O)N1C [PP3318] |  |  |  |  | A (a compound having 10 or more and less than 20 is denoted as A) | A (a compound having 10 or more and less than 20 is denoted as A) | 6.5 |  | 0.26 |
| CCCO[C@@H]1C[C@H]2C(=O)NC3(CC(C)(C)C3)C(=O)N(C)[C@@H](C3CCCC3)C(=O)N(C)[C@H](C(=O)N(C)CC)CC(=O)N(C)[C@@H](COCC)C(=O)N[C@@H]([C@@H](C)CC)C(=O)N(C3CC3)CC(=O)N(C)[C@H]3C/C=C\CCN(C3=O)[C@@H](Cc3ccc(C)cc3)C(=O)N(C)CC(=O)N[C@@H](CCc3cc(F)c(C(F)(F)F)c(F)c3)C(=O)N2C1 [PP3458] |  |  |  |  | A (a compound having 10 or more and less than 20 is denoted as A) | A (a compound having 10 or more and less than 20 is denoted as A) | 28.8 |  | 0.82 |
| CCO[C@@H]1C[C@H]2C(=O)NC3(CCC3)C(=O)N(C)[C@@H](C3CCCC3)C(=O)N(C)[C@H](C(=O)N(C)C)CC(=O)N(C)[C@@H](CC3CC3)C(=O)N[C@@H]([C@@H](C)CC)C(=O)N(C)CC(=O)N(C)[C@H]3C/C=C\CCN(C3=O)[C@@H](CC3CCCCC3)C(=O)N(C)CC(=O)N[C@@H](CCc3cc(F)c(C(F)(F)F)c(F)c3)C(=O)N2C1 [PP1446] | A (a compound having 10 or more and less than 20 is denoted as A) | A (a compound having 10 or more and less than 20 is denoted as A) | 32 | 0.2 |  |  |  |  |  |
| CC[C@H](C)[C@@H]1NC(=O)[C@H](CC2CCC2)N(C)C(=O)C[C@@H](C(=O)N(C)C)N(C)C(=O)[C@H](C2CCCC2)N(C)C(=O)C2(CCCC2)NC(=O)[C@@H]2CCCN2C(=O)[C@H](CCc2ccc(C(F)(F)F)c(Cl)c2)NC(=O)CN(C)C(=O)[C@H](Cc2ccc(C(F)(F)F)cc2)N2C[C@H](C)CC[C@@H](C2=O)N(C)C(=O)CN(C)C1=O [PP1342] | B (a compound having 3 or more and less than 10 is denoted as B) | B (a compound having 3 or more and less than 10 is denoted as B) | 5 | 0.091 |  |  |  |  |  |
| C#CC[C@H]1C(=O)N[C@@H]([C@@H](C)CC)C(=O)N(C2CC2)CC(=O)N(C)[C@H]2C/C=C\CCN(C2=O)[C@@H](Cc2ccc(C(F)(F)F)cc2)C(=O)N(C)CC(=O)N[C@@H](CCc2cc(F)c(C(F)(F)F)c(F)c2)C(=O)N2C[C@H](OCC)C[C@H]2C(=O)N(C)C2(CCC2)C(=O)N(C)[C@@H](C2CCCC2)C(=O)N(C)[C@H](C(=O)N(C)C)CC(=O)N1C [PP3244] |  |  |  |  | A (a compound having 10 or more and less than 20 is denoted as A) | A (a compound having 10 or more and less than 20 is denoted as A) | 1.9 |  | 0.1 |
| CCC[C@H]1C(=O)N[C@@H](C2CCCC2)C(=O)N(C)CC(=O)N(C)[C@H]2C/C=C\CCN(C2=O)[C@@H](Cc2ccc(C)cc2)C(=O)N(C)CC(=O)N[C@@H](CCc2ccc(C(F)(F)F)c(Cl)c2)C(=O)N2CC3(CC3)C[C@H]2C(=O)NC2(CCC2)C(=O)N(C)[C@@H](C2CCCC2)C(=O)N(C)[C@H](C(=O)N(C)C)CC(=O)N1C [PP3444] |  |  |  |  | AA (a compound having 20 or more is denoted as AA) | A (a compound having 10 or more and less than 20 is denoted as A) | 13.6 |  | 0.19 |
| CCO[C@@H]1C[C@H]2C(=O)NC3(CCC3)C(=O)N(C)[C@@H](C3CCCC3)C(=O)N(C)[C@H](C(=O)N3CCCC3)CC(=O)N(C)[C@@H](CC)C(=O)N[C@@H]([C@@H](C)CC)C(=O)N(C)CC(=O)N(C)[C@H]3C/C=C\CCN(C3=O)[C@@H](CC3CCCCC3)C(=O)N(C)CC(=O)N[C@@H](CCc3cc(F)c(C(F)(F)F)c(F)c3)C(=O)N2C1 [PP1443] | AA (a compound having 20 or more is denoted as AA) | A (a compound having 10 or more and less than 20 is denoted as A) | 34.8 | 0.15 |  |  |  |  |  |
